Like-named read-outs stand apart in the source and are kept apart here.
What was measured:
5-HT1A = 5-HT1A (Rattus norvegicus (Rat), UniProt P19327); test: 5-HT1A receptor binding assay (3H-8-OH-DPAT); settings: rat cortex membrane, 3H-8-OH-DPAT
Method: Rats were decapitated. […] Incubation at 37° C. was conducted for 10 min. […] Centrifugation was conducted and repeated 3 times.
Materials for the Receptor Binding Assay

D2 = D2 (Rattus norvegicus (Rat), UniProt P61169); test: D2 receptor binding assay (3H-Spiperone)
D2, sequence (P61169 whole entry): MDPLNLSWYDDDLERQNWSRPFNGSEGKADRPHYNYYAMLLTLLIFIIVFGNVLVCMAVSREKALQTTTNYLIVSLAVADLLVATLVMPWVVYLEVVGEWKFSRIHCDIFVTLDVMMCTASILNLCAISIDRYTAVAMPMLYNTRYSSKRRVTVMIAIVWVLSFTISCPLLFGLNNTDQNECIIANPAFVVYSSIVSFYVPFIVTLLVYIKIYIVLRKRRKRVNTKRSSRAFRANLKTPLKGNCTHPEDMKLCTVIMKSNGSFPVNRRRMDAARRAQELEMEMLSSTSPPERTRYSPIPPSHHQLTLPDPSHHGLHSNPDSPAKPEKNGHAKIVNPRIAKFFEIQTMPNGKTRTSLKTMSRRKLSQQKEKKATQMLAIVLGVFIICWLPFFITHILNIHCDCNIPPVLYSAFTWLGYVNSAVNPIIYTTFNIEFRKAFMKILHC
Method: Rats were decapitated. Striatum of brain was rapidly taken on ice, 3 ml of buffer (0.05 M Tris-HCl buffer, containing NaCl 120 mM, KCl 5 mM, MgCl2 1 mM, CaCl2 1 mM) was added, homogenization was conducted, and then 5 ml of buffer was then added. The weight of the homogenized tubes were adjusted using a balance, and centrifugation was conducted. The supernatant was discarded, and 3 ml of buffer was added. Vortex mixer was used for blending, and then 5 ml of buffer was added. Centrifugation was conducted and repeated 3 times. The supernatant was discarded after centrifugation was completed, and the pellets were stored at −80° C. for future use.
Beckman LS-6500 Multi-function Liquid Scintillation Counter was used.
(1) The prepared membrane was applied with appropriate amount of buffer, and homogenizer was used for evenly dispersing. 15 tubes were mixed into a 100 ml container, and appropriate amount of buffer was added to give 50 ml of membrane suspension, which was reserved for future use.
(§1) (2) 100 μL of membrane preparation and 100 μL of buffer were added into each reaction tube.
(3) 100 μL of buffer was added into the total binding tube (TB), 100 μL of Butaclamol (final concentration 10^−5M) was added into the nonspecific binding tube (NB), 100 μL of the test compound (final concentration 10^−5M) was added into the specific binding tube (SB) of each test compound.
(5) Each of the reaction tubes was incubated at 37° C. for 20 min. After the reaction was completed, the bound ligands were rapidly filtered under reduced pressure, and sufficiently washed with ice-chilled assay buffer. The filter was taken out and put into a 3 ml scintillation vial, and 2 ml of toluene scintillation cocktail was added and blended.
(6) The scintillation vials were put into Liquid Scintillation Counter for counting. Inhibition rate(I%)=(Total binding tube cpm−compound cpm)/(Total binding tube cpm−nonspecific binding tube cpm)×100%
Each assay for the compounds was conducted in duplicate for two individual tests.

5-HT2A = 5-HT2A (Rattus norvegicus (Rat), UniProt P14842); test: 5-HT2A receptor binding assay ([3H]-Ketanserin)
5-HT2A, sequence (P14842 whole entry): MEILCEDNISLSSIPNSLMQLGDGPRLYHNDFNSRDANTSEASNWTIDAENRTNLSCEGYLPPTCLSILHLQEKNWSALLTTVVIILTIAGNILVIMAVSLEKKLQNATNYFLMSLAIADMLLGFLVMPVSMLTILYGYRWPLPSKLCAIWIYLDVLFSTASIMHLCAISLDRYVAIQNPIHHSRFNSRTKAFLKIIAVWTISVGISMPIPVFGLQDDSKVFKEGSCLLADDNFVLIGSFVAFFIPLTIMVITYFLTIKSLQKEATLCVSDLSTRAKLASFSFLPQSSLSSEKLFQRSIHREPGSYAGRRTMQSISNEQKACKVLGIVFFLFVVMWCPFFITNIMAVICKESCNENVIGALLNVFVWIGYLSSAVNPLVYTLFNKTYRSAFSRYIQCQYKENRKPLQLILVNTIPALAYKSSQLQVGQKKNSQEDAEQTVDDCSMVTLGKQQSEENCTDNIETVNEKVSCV
Method: Rats were decapitated. Cortex of brain was rapidly taken on ice, and 3 ml of buffer (0.05 M Tris-HCl buffer: 6.05 g of Tris was dissolved in 1000 ml of double-distilled water, and concentrated HCl was used to adjust to pH 7.5) was added, homogenization was conducted, and then 5 ml of buffer was added. Incubation was conducted at 37° C. for 10 min, the weight of the tubes were adjusted using a balance after incubation. Centrifugation was conducted at 12000 rpm, 4° C. for 20 min, the supernatant was discarded, and 3 ml of buffer was added. Vortex mixer was used for blending, and then 5 ml of buffer was added. Centrifugation was conducted (repeated 3 times). After the centrifugation, the supernatant was discarded, and the pellets were stored at −80° C. for future use.
(1) The prepared membrane was applied with buffer, and homogenizer was used for evenly dispersing. 15 tubes were mixed into a 100 ml container, and appropriate amount of buffer was added to give 50 ml of membrane suspension, which was reserved for future use.
as §1
(3) 100 μL of buffer was added into the total binding tube (TB), 100 μL of Methysergide (final concentration 10^−5M) was added into the nonspecific binding tube (NB), 100 μL of the test compound (final concentration 10^−5M) was added into the specific binding tube (SB) of each test compound.
(5) Each of the reaction tubes was incubated at 37° C. for 15 min. After the reaction was completed, the bound ligands were rapidly filtered under reduced pressure, and sufficiently washed with ice-chilled assay buffer. The filter was taken out and put into a 3 ml scintillation vial, and 2 ml of toluene scintillation cocktail was added and blended.
(6) The scintillation vial were put into Liquid Scintillation Counter for counting. Inhibition rate(I%)=(Total binding tube cpm−compound cpm)/(Total binding tube cpm−nonspecific binding tube cpm)×100%

[1] = read-out: Ki (nM) D2, rat striatum membrane, 3H-Spiperone
[2] = read-out: Ki (nM) 5-HT2A, rat cortex membrane, [3H]-Ketanserin

5-HT1A, sequence (P19327 whole entry): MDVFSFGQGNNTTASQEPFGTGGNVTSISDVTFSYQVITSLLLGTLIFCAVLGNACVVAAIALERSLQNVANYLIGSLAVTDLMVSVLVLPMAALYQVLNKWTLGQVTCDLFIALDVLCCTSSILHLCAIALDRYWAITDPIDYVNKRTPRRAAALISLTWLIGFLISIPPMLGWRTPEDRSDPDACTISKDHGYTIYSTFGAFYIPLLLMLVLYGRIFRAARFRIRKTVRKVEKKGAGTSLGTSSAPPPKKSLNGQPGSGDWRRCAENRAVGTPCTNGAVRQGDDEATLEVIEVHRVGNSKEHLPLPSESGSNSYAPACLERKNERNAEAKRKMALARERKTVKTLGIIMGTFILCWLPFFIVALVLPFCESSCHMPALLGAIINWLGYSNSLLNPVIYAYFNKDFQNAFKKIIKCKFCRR

Structure (SMILES) | Ki (5-HT1A) | Ki (D2; [1]) | Ki (5-HT2A; [2]) | Ki (D2) | Ki (5-HT2A)
CN1CCc2ccc(OCCCN3CCN(c4ccc(F)cc4)CC3)cc2C1=O [Compound 19, 7-(3-(4-(4-fluorophenyl)piperazin-1-yl)propoxy)-2-methyl-3,4-dihydroisoquinolin-1(2H)-one] | 746 nM | 1650 nM | 688 nM | – | –
CN1CCc2ccc(OCCCN3CCN(c4ccccn4)CC3)cc2C1=O [Compound 23, 2-methyl-7-(3-(4-(pyridin-2-yl)piperazin-1-yl)propoxy)-3,4-dihydroisoquinolin-1(2H)-one] | > 2000 nM | > 2000 nM | 369 nM | – | –
COc1ccccc1N1CCN(CCCCOc2ccc3c(c2)C(=O)N(C)CC3)CC1 [Compound 2, 7-(4-(4-(2-methoxyphenyl)piperazin-1-yl)butoxy)-2-methyl-3,4-dihydroisoquinolin-1(2H)-one] | 11.3 nM | 120 nM | 36.8 nM | – | –
CN1CCc2ccc(OCCCN3CCN(c4ccc(Cl)cc4)CC3)cc2C1=O [Compound 17, 7-(3-(4-(4-chlorophenyl)piperazin-1-yl)propoxy)-2-methyl-3,4-dihydroisoquinolin-1(2H)-one] | > 2000 nM | > 2000 nM | > 2000 nM | – | –
CN1CCc2ccc(OCCCN3CCN(c4ccccc4)CC3)cc2C1=O [Compound 16, 2-methyl-7-(3-(4-phenylpiperazin-1-yl)propoxy)-3,4-dihydroisoquinolin-1(2H)-one] | 569 nM | > 2000 nM | 372 nM | – | –
Cn1cnc2ccc(OCCCCN3CCN(Cc4ccccc4)CC3)cc2c1=O [Compound 26, 6-(4-(4-benzylpiperazin-1-yl)butoxy)-3-methylquinazolin-4(3H)-one] | 56.9 nM | > 2000 nM | > 2000 nM | – | –
COc1ccc(N2CCN(CCCOc3ccc4c(c3)C(=O)N(C)CC4)CC2)cc1 [Compound 21, 7-(3-(4-(4-methoxyphenyl)piperazin-1-yl)propoxy)-2-methyl-3,4-dihydroisoquinolin-1(2H)-one] | > 2000 nM | > 2000 nM | > 2000 nM | – | –
Cn1cnc2ccc(OCCCCN3CCN(c4ccccn4)CC3)cc2c1=O [Compound 30, 3-methyl-6-(4-(4-(pyridin-2-yl)piperazin-1-yl)butoxy)quinazolin-4(3H)-one] | > 2000 nM | – | – | > 2000 nM | > 2000 nM
Cn1cnc2ccc(OCCCCN3CCc4ccccc4C3)cc2c1=O [Compound 27, 6-(4-(3,4-dihydroisoquinolin-2(1H)-yl)butoxy)-3-methylquinazolin-4(3H)-one] | 57.9 nM | 500 nM | 66.2 nM | – | –
CN1CCc2ccc(OCCCN3CCN(c4ccc5ccccc5n4)CC3)cc2C1=O [Compound 15, 7-(3-(4-(quinolin-2-yl)piperazin-1-yl)propoxy)-2-methyl-3,4-dihydroisoquinolin-1(2H)-one] | 157 nM | 1990 nM | 468 nM | – | –
CN1CCc2ccc(OCCCN3CCN(c4ccccc4Cl)CC3)cc2C1=O [Compound 18, 7-(3-(4-(2-chlorophenyl)piperazin-1-yl)propoxy)-2-methyl-3,4-dihydroisoquinolin-1(2H)-one] | > 2000 nM | > 2000 nM | > 2000 nM | – | –
CN1CCc2ccc(OCCCN3CCN(c4ccc5c(c4)OCO5)CC3)cc2C1=O [Compound 13, 7-(3-(4-(benzo[d][1,3]dioxol-5-yl)piperazin-1-yl)propoxy)-2-methyl-3,4-dihydroisoquinolin-1 (2H)-one] | 12.8 nM | 235 nM | 3.6 nM | – | –
CN1CCc2ccc(OCCCN3CCN(c4cccc5ccccc45)CC3)cc2C1=O [Compound 6, 2-methyl-7-(3-(4-(naphthalen-1-yl)piperazin-1-yl)propoxy)-3,4-dihydroisoquinolin-1(2H)-one] | 46.6 nM | 134 nM | 57 nM | – | –
Cn1cnc2ccc(OCCCCN3CCN(c4ccc(F)cc4)CC3)cc2c1=O [Compound 29, 6-(4-(4-(4-fluorophenyl)piperazin-1-yl)butoxy)-3-methylquinazolin-4(3H)-one] | 259 nM | > 2000 nM | 347 nM | – | –
